Key:
Type in all cases: in vivo
[1] = tested on: barnyardgrass (Echinochloa crus-galli); experiment: Test A pre/postemergence
Method in brief: (§1)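 Greenhouse herbicide test with preemergence directed soil spray and postemergence foliar spray at the 1- to 2-leaf stage; visual control rating 0–100 versus untreated at ~10 days.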

[2] = tested on: velvetleaf (Abutilon theophrasti); experiment: Test A pre/postemergence
Method in brief: as §1

[3] = tested on: giant foxtail (Setaria faberi); experiment: Test A pre/postemergence
Method in brief: as §1

[4] = tested on: redroot pigweed (Amaranthus retroflexus); experiment: Test A pre/postemergence
Method in brief: as §1

[5] = tested on: morningglory (Ipomoea spp.); experiment: Test A pre/postemergence
Method in brief: as §1

[6] = tested on: crabgrass (Digitaria sanguinalis); experiment: Test A pre/postemergence
Method in brief: as §1

[7] = tested on: late watergrass (Echinochloa oryzicola); experiment: Test E flooded paddy water application; settings: Flood, 21 days, scale 0 to 100 (0 no effect, 100 complete control)
Method in brief: (§2)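 Response scored visually on a 0–100 scale (100 = complete control) at 21 days against untreated pots. Treatment was into paddy water 3 cm deep over silt loam, with plants at the 2.0–2.5-leaf stage, grown under 16-h light at 29.5/26.7 °C day/night.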

[8] = tested on: junglerice (Echinochloa colona); experiment: Test E flooded paddy water application; settings: Flood, 21 days, scale 0 to 100 (0 no effect, 100 complete control)
Method in brief: as §2

[9] = tested on: bearded (brdd.) sprangletop (Leptochloa fusca ssp. fascicularis); experiment: Test E flooded paddy water application; settings: Flood, 21 days, scale 0 to 100 (0 no effect, 100 complete control)
Method in brief: as §2

[10] = tested on: barnyardgrass (Echinochloa crus-galli); experiment: Test E flooded paddy water application; settings: Flood, 21 days, scale 0 to 100 (0 no effect, 100 complete control)
Method in brief: as §2

[11] = tested on: smallflower umbrella sedge (Cyperus difformis); experiment: Test E flooded paddy water application; settings: Flood, 21 days, scale 0 to 100 (0 no effect, 100 complete control)
Method in brief: as §2

[12] = tested on: ducksalad (Heteranthera limosa); experiment: Test E flooded paddy water application; settings: Flood, 21 days, scale 0 to 100 (0 no effect, 100 complete control)
Method in brief: as §2

[13] = tested on: purple redstem (Ammannia coccinea); experiment: Test E flooded paddy water application; settings: Flood, 21 days, scale 0 to 100 (0 no effect, 100 complete control)
Method in brief: as §2

[14] = tested on: rice flatsedge (Cyperus iria); experiment: Test E flooded paddy water application; settings: Flood, 21 days, scale 0 to 100 (0 no effect, 100 complete control)
Method in brief: as §2

[15] = tested on: water seeded rice seedlings (Oryza sativa cv. ‘Japonica-M202’); experiment: Test E flooded paddy water application; settings: Flood, 21 days, scale 0 to 100 (0 no effect, 100 complete control)
Method in brief: as §2

[16] = tested on: early watergrass (Echinochloa oryzoides); experiment: Test E flooded paddy water application; settings: Flood, 21 days, scale 0 to 100 (0 no effect, 100 complete control)
Method in brief: as §2

[17] = tested on: transplanted rice seedlings (Oryza sativa cv. ‘Japonica-M202’); experiment: Test E flooded paddy water application; settings: Flood, 21 days, scale 0 to 100 (0 no effect, 100 complete control)
Method in brief: as §2

[18] = Postemergence, 125 g ai/ha, 0 to 100 scale (0 no effect, 100 complete control)
[19] = Postemergence, 500 g ai/ha, 0 to 100 scale (0 no effect, 100 complete control)
[20] = Preemergence, 125 g ai/ha, 0 to 100 scale where 0 is no effect and 100 is complete control, approximately ten days
[21] = Preemergence, 500 g ai/ha, 0 to 100 scale where 0 is no effect and 100 is complete control, approximately ten days

CCOC(=O)c1nc(-c2ccc(C)c(C)c2)nc(N)c1Br [Compound 70]
Plant response rating, Barnyardgrass [1, 18]: 0 | Plant response rating, Barnyardgrass [1, 19]: 0 | Plant response rating, Barnyardgrass [1, 20]: 0 | Plant response rating, Barnyardgrass [1, 21]: 0 | Plant response rating, Velvetleaf [2, 18]: 35 | Plant response rating, Velvetleaf [2, 19]: 60 | Plant response rating, Velvetleaf [2, 20]: 20 | Plant response rating, Velvetleaf [2, 21]: 35 | Plant response rating, Foxtail, Giant [3, 18]: 0 | Plant response rating, Foxtail, Giant [3, 19]: 0 | Plant response rating, Foxtail, Giant [3, 20]: 5 | Plant response rating, Foxtail, Giant [3, 21]: 5 | Plant response rating, Pigweed [4, 18]: 15 | Plant response rating, Pigweed [4, 19]: 20 | Plant response rating, Pigweed [4, 20]: 0 | Plant response rating, Pigweed [4, 21]: 10 | Plant response rating, Morningglory [5, 18]: 0 | Plant response rating, Morningglory [5, 19]: 10 | Plant response rating, Morningglory [5, 20]: 0 | Plant response rating, Morningglory [5, 21]: 0 | Plant response rating, Crabgrass [6, 18]: 0 | Plant response rating, Crabgrass [6, 19]: 20 | Plant response rating, Crabgrass [6, 20]: 5 | Plant response rating, Crabgrass [6, 21]: 20 | Watergrass, Late plant response rating ([7]; 32 g ai/ha): 0 | Watergrass, Late plant response rating ([7]; 64 g ai/ha): 0 | Watergrass, Late plant response rating ([7]; 125 g ai/ha): 0 | Watergrass, Late plant response rating ([7]; 250 g ai/ha): 0 | Plant response rating, Watergrass, Late ([7]; 16 g ai/ha): 0 | Junglerice plant response rating ([8]; 32 g ai/ha): 0 | Junglerice plant response rating ([8]; 64 g ai/ha): 0 | Junglerice plant response rating ([8]; 125 g ai/ha): 0 | Junglerice plant response rating ([8]; 250 g ai/ha): 0 | Plant response rating, Junglerice ([8]; 16 g ai/ha): 0 | Sprangletop, Brdd. plant response rating ([9]; 32 g ai/ha): 0 | Sprangletop, Brdd. plant response rating ([9]; 64 g ai/ha): 0 | Sprangletop, Brdd. plant response rating ([9]; 125 g ai/ha): 0 | Sprangletop, Brdd. plant response rating ([9]; 250 g ai/ha): 0 | Plant response rating, Sprangletop, Brdd. ([9]; 16 g ai/ha): 0 | Barnyardgrass plant response rating ([10]; 32 g ai/ha): 0 | Barnyardgrass plant response rating ([10]; 64 g ai/ha): 0 | Barnyardgrass plant response rating ([10]; 125 g ai/ha): 0 | Barnyardgrass plant response rating ([10]; 250 g ai/ha): 0 | Plant response rating, Barnyardgrass ([10]; 16 g ai/ha): 0 | Sedge, Umbrella plant response rating ([11]; 32 g ai/ha): 0 | Sedge, Umbrella plant response rating ([11]; 64 g ai/ha): 0 | Sedge, Umbrella plant response rating ([11]; 125 g ai/ha): 0 | Sedge, Umbrella plant response rating ([11]; 250 g ai/ha): 60 | Plant response rating, Sedge, Umbrella ([11]; 16 g ai/ha): 0 | Ducksalad plant response rating ([12]; 32 g ai/ha): 40 | Ducksalad plant response rating ([12]; 64 g ai/ha): 100 | Ducksalad plant response rating ([12]; 125 g ai/ha): 100 | Ducksalad plant response rating ([12]; 250 g ai/ha): 100 | Plant response rating, Ducksalad ([12]; 16 g ai/ha): 0 | Redstem plant response rating ([13]; 32 g ai/ha): 0 | Redstem plant response rating ([13]; 64 g ai/ha): 0 | Redstem plant response rating ([13]; 125 g ai/ha): 0 | Redstem plant response rating ([13]; 250 g ai/ha): 0 | Plant response rating, Redstem ([13]; 16 g ai/ha): 0 | Flatsedge, Rice plant response rating ([14]; 32 g ai/ha): 0 | Flatsedge, Rice plant response rating ([14]; 64 g ai/ha): 0 | Flatsedge, Rice plant response rating ([14]; 125 g ai/ha): 30 | Flatsedge, Rice plant response rating ([14]; 250 g ai/ha): 65 | Plant response rating, Flatsedge, Rice ([14]; 16 g ai/ha): 0 | Rice, Water Seeded plant response rating ([15]; 32 g ai/ha): 0 | Rice, Water Seeded plant response rating ([15]; 64 g ai/ha): 0 | Rice, Water Seeded plant response rating ([15]; 125 g ai/ha): 0 | Rice, Water Seeded plant response rating ([15]; 250 g ai/ha): 0 | Plant response rating, Rice, Water Seeded ([15]; 16 g ai/ha): 0 | Watergrass, Early plant response rating ([16]; 32 g ai/ha): 0 | Watergrass, Early plant response rating ([16]; 64 g ai/ha): 0 | Watergrass, Early plant response rating ([16]; 125 g ai/ha): 0 | Watergrass, Early plant response rating ([16]; 250 g ai/ha): 0 | Plant response rating, Watergrass, Early ([16]; 16 g ai/ha): 0 | Rice, Transplanted plant response rating ([17]; 32 g ai/ha): 0 | Rice, Transplanted plant response rating ([17]; 64 g ai/ha): 0 | Rice, Transplanted plant response rating ([17]; 125 g ai/ha): 0 | Rice, Transplanted plant response rating ([17]; 250 g ai/ha): 0 | Plant response rating, Rice, Transplanted ([17]; 16 g ai/ha): 0
